# Laboratory results as given in ChEMBL document CHEMBL1133153, “Antitumour benzothiazoles. Part 10: the synthesis and antitumour activity of benzothiazole substituted quinol derivatives” (Bioorg Med Chem Lett, 2000).
# What was measured:
# Format in all cases: functional, cell-based
# MDA-MB-468 = experiment: The compound was tested in vitro for its antitumor activity against human breast cell line MDA-468
# HCT-116 = experiment: The compound was tested in vitro for its antitumor activity against human colon cancer cell line HCT116
# MCF7 = experiment: The compound was tested in vitro for its antitumor activity against human breast cell line MCF-7
# HT-29 = experiment: The compound was tested in vitro for its antitumor activity against human colon cancer cell line HT-29
IC50 (MDA-MB-468),IC50 (HCT-116),IC50 (MCF7),IC50 (HT-29),Compound
0.05 µM,> 100 µM,51.8 µM,78.7 µM,Oc1cccc(-c2nc3ccccc3s2)c1
0.14 µM,> 100 µM,53.4 µM,83.7 µM,Oc1ccc(-c2nc3ccccc3s2)cc1
